IC50 data for 16 molecules are collected here from patent publication US20230286958A1, “PLASMA KALLIKREIN INHIBITORS” (Merck Sharp & Dohme LLC, priority 2020, published 2023).

In one test the target is Human plasma kallikrein (Homo sapiens (Human), UniProt P03952). As to the kind of experiment: Kallikrein Assay (fluorogenic substrate Acetyl-K-P-R-AFC). Type of test: biochemical. Conditions: Plasma Kallikrein (PKal). On the procedure:
(§1) The effectiveness of a compound of the present invention as an inhibitor of Kallikrein can be determined using a relevant purified serine protease, and an appropriate synthetic substrate. The rate of hydrolysis of the chromogenic or fluorogenic substrate by the relevant serine protease was measured both in the absence and presence of compounds of the present invention. Assays were conducted at room temperature or at 37° C. […] A decrease in the rate of fluorescence change in the presence of inhibitor is indicative of enzyme inhibition. Such methods are known to one skilled in the art. The results of this assay are expressed as the half-maximal inhibitory concentrations (IC50), or the inhibitory constant, Ki.
Kallikrein determinations were made in 50 mM HEPES buffer at pH 7.4 containing 150 mM NaCl, 5 mM CaC12, and 0.1% PEG 8000 (polyethylene glycol; Fisher Scientific). Determinations were made using purified Human plasma kallikrein at a final concentration of 0.5 nM (Enzyme Research Laboratories) and the synthetic substrate, Acetyl-K-P-R-AFC (Sigma # C6608) at a concentration of […].
Times required to achieve equilibration between enzyme and inhibitor were determined in control experiments. […] IC50 was determined by inflection point from a four parameter logistic curve fit. Ki was calculated using the Cheng Prusoff equation, Ki = IC50/(1+([S]/Km)).

Another test addresses human Factor XIa (Homo sapiens (Human), UniProt P03951). As to the kind of experiment: Factor XIa Assay (fluorogenic substrate GPR-AFC). It counts as biochemical. Conditions: Factor XIa (FXIa). On the procedure: as §1, with “Coagulation Factor XIa” for “Kallikrein”
Compounds were pre-incubated for 30 minutes at 25° C. with human (0.04 nM) Factor XIa in 50 mM HEPES buffer with 150 mM sodium chloride, 5 mM calcium chloride, 0.1% PEG 8000, pH 7.4. […] The % inhibition for each data point was calculated from the data and analyzed using the log (inhibitor) vs. response four parameters equation to determine the half-maximal inhibitory concentrations (IC50). The IC50 were converted to equilibrium inhibitory constants (Ki) using the Cheng-Prusoff equation.

Sequence of human Factor XIa (P03951 388-625 limits assumed): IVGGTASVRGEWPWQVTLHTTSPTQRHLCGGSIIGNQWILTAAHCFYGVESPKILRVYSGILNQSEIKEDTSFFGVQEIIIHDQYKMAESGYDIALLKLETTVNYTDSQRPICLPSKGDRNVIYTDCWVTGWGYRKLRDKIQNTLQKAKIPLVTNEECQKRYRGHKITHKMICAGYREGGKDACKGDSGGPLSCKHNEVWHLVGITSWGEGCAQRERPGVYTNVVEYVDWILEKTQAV
Sequence of human Factor XIa (P03951 19-387 partner limits assumed): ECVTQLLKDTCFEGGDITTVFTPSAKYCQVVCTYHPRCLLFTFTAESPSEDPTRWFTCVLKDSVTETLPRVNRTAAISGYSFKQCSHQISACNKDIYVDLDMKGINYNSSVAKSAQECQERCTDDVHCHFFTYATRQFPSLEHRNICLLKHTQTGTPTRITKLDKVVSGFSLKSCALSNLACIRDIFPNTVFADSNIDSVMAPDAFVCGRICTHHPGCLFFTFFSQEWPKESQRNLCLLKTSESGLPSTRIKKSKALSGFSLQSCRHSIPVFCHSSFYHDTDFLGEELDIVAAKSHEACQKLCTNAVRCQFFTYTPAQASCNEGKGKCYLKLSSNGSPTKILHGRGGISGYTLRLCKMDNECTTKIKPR
Sequence of Human plasma kallikrein (P03952 391-638): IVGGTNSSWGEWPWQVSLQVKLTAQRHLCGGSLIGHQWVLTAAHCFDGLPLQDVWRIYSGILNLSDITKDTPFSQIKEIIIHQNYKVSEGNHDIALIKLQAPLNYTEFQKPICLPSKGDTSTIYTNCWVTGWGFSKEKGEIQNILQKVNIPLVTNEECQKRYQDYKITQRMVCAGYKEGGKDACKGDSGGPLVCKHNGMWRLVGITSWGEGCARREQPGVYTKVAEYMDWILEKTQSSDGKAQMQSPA
Sequence of Human plasma kallikrein (P03952 20-390 partner): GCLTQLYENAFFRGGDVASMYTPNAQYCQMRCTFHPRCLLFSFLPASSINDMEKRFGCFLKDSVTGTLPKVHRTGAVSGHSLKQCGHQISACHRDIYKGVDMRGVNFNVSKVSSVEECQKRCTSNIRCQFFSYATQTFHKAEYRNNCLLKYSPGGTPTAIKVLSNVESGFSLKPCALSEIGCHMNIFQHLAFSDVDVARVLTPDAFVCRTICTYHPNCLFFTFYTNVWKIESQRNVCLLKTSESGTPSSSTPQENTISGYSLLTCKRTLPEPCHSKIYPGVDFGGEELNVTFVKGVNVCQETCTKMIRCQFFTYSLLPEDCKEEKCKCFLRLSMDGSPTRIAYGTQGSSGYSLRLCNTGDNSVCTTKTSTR

Turning to `Cc1ncc(-c2c(C(F)F)ccc(Cl)c2F)nc1C(=O)Nc1cnn(C(C)c2cnc(N3C[C@H]4C[C@H]4C3=O)c(F)c2)c1` (single isomer, unassigned) [Example 52, 6-(3-Chloro-6-(difluoromethyl)-2-fluorophenyl)-N-(1-((R or S)-1-(S-fluoro-6-((1R,5S)-2-oxo-3-azabicyclo[3.1.0]hexan-3-yl)pyridin-3-yl)ethyl)-1H-pyrazol-4-yl)-3-methylpyrazine-2-carboxamide], the results for the IC50 against Human plasma kallikrein and against human Factor XIa were 1.1 nM and 4830 nM, respectively.
The matching figures for `Cc1nc(N2C[C@H]3C[C@H]3C2=O)cnc1C(C)n1cc(NC(=O)c2cncc(-c3c(C(F)F)ccc(Cl)c3F)n2)cn1` (single isomer, unassigned) [Example 53, 6-(3-Chloro-6-(difluoromethyl)-2-fluorophenyl)-N-(1-((S or R)-1-(3-methyl-5-((1R,5S)-2-oxo-3-azabicyclo[3.1.0]hexan-3-yl)pyrazin-2-yl)ethyl)-1H-pyrazol-4-yl)pyrazine-2-carboxamide]: 38.3 nM and 6630 nM.
For `CCc1nc(C(C)n2cc(NC(=O)c3cncc(-c4c(C(F)F)ccc(Cl)c4F)n3)cn2)cnc1N1C[C@H]2C[C@H]2C1=O` (single isomer, unassigned) [Example 55, 6-(3-Chloro-6-(difluoromethyl)-2-fluorophenyl)-N-(1-((S or R)-1-(6-ethyl-5-((1R,5S)-2-oxo-3-azabicyclo[3.1.0]hexan-3-yl)pyrazin-2-yl)ethyl)-1H-pyrazol-4-yl)pyrazine-2-carboxamide], in that order: 5.8 nM and 5360 nM.
The matching figures for `CCc1nc(C(C)n2cc(NC(=O)c3cncc(-c4c(C(F)F)ccc(Cl)c4F)n3)cn2)cnc1N1C[C@H]2C[C@H]2C1=O` (single isomer, unassigned) [Example 56, 6-(3-Chloro-6-(difluoromethyl)-2-fluorophenyl)-N-(1-((R or S)-1-(6-ethyl-5-((1R,5S)-2-oxo-3-azabicyclo[3.1.0]hexan-3-yl)pyrazin-2-yl)ethyl)-1H-pyrazol-4-yl)pyrazine-2-carboxamide]: 1.5 nM and more than 10000 nM.
For the molecule `Cc1nc(C(C)n2cc(NC(=O)c3nc(-c4c(C(F)F)ccc(Cl)c4F)cnc3C)cn2)ccc1N1C[C@H]2C[C@H]2C1=O` (single isomer, unassigned) [Example 58, 6-(3-Chloro-6-(difluoromethyl)-2-fluorophenyl)-3-methyl-N-(1-((S or R)-1-(6-methyl-5-((1R,5S)-2-oxo-3-azabicyclo[3.1.0]hexan-3-yl)pyridin-2-yl)ethyl)-1H-pyrazol-4-yl)pyrazine-2-carboxamide], the values for the IC50 on Human plasma kallikrein and at human Factor XIa were 0.6 nM and more than 10000 nM, respectively.
`Cc1nc(C(C)n2cc(NC(=O)c3nc(-c4c(C(F)F)ccc(Cl)c4F)cnc3C)cn2)ccc1N1C[C@H]2C[C@H]2C1=O` (single isomer, unassigned) [Example 59, 6-(3-Chloro-6-(difluoromethyl)-2-fluorophenyl)-3-methyl-N-(1-((R or S)-1-(6-methyl-5-((1R,5S)-2-oxo-3-azabicyclo[3.1.0]hexan-3-yl)pyridin-2-yl)ethyl)-1H-pyrazol-4-yl)pyrazine-2-carboxamide]: the IC50 against Human plasma kallikrein is 3.2 nM; on human Factor XIa it was more than 10000 nM.
For `Cc1nc(C(C)n2cc(NC(=O)c3cncc(-c4c(C(F)F)ccc(Cl)c4F)n3)cn2)ccc1N1C[C@H]2C[C@H]2C1=O` (single isomer, unassigned) [Example 60, 6-(3-Chloro-6-(difluoromethyl)-2-fluorophenyl)-N-(1-((S or R)-1-(6-methyl-5-((1R,5S)-2-oxo-3-azabicyclo[3.1.0]hexan-3-yl)pyridin-2-yl)ethyl)-1H-pyrazol-4-yl)pyrazine-2-carboxamide], in that order: 5.5 nM and more than 10000 nM.
For `Cc1nc(C(C)n2cc(NC(=O)c3cncc(-c4c(C(F)F)ccc(Cl)c4F)n3)cn2)ccc1N1C[C@H]2C[C@H]2C1=O` (single isomer, unassigned) [Example 61, 6-(3-Chloro-6-(difluoromethyl)-2-fluorophenyl)-N-(1-((R or S)-1-(6-methyl-5-((1R,5S)-2-oxo-3-azabicyclo[3.1.0]hexan-3-yl)pyridin-2-yl)ethyl)-1H-pyrazol-4-yl)pyrazine-2-carboxamide], in that order: 0.7 nM and more than 10000 nM.
For `Cc1cc(N2C[C@H]3C[C@H]3C2=O)cnc1C(C)n1cc(NC(=O)c2cncc(-c3c(C(F)F)ccc(Cl)c3F)n2)cn1` (single isomer, unassigned) [Example 62, 6-(3-Chloro-6-(difluoromethyl)-2-fluorophenyl)-N-(1-((S or R)-1-(3-methyl-5-((1R,5S)-2-oxo-3-azabicyclo[3.1.0]hexan-3-yl)pyridin-2-yl)ethyl)-1H-pyrazol-4-yl)pyrazine-2-carboxamide], in that order: 4.2 nM and 7630 nM.
Consider `Cc1cc(C(C)n2cc(NC(=O)c3cncc(-c4c(C(F)F)ccc(Cl)c4F)n3)cn2)cnc1N1C[C@H]2C[C@H]2C1=O` (single isomer, unassigned) [Example 66, 6-(3-Chloro-6-(difluoromethyl)-2-fluorophenyl)-N-(1-((S or R)-1-(5-methyl-6-((1R,5S)-2-oxo-3-azabicyclo[3.1.0]hexan-3-yl)pyridin-3-yl)ethyl)-1H-pyrazol-4-yl)pyrazine-2-carboxamide], for which the IC50 at Human plasma kallikrein was found to be 0.6 nM; on human Factor XIa, 1630 nM.
Turning to `Cc1cc(C(C)n2cc(NC(=O)c3cncc(-c4c(C(F)F)ccc(Cl)c4F)n3)cn2)cnc1N1C[C@H]2C[C@H]2C1=O` (single isomer, unassigned) [Example 67, 6-(3-Chloro-6-(difluoromethyl)-2-fluorophenyl)-N-(1-((R or S)-1-(5-methyl-6-((1R,5S)-2-oxo-3-azabicyclo[3.1.0]hexan-3-yl)pyridin-3-yl)ethyl)-1H-pyrazol-4-yl)pyrazine-2-carboxamide], the figures for the IC50 on Human plasma kallikrein and against human Factor XIa were 2.1 nM and 389 nM, respectively.
For `Cc1cc(N2C[C@H]3C[C@H]3C2=O)ncc1C(C)n1cc(NC(=O)c2cncc(-c3c(C(F)F)ccc(Cl)c3F)n2)cn1` (single isomer, unassigned) [Example 68, 6-(3-Chloro-6-(difluoromethyl)-2-fluorophenyl)-N-(1-((S or R)-1-(4-methyl-6-((1R,5S)-2-oxo-3-azabicyclo[3.1.0]hexan-3-yl)pyridin-3-yl)ethyl)-1H-pyrazol-4-yl)pyrazine-2-carboxamide], in that order: 1.1 nM and 5250 nM.
Turning to `CC(c1cnc(N2CC3CC3C2=O)nc1)n1cc(NC(=O)c2cncc(-c3c(C(F)(F)F)ccc(Cl)c3F)n2)cn1` (single isomer, unassigned) [Example 70, 6-(3-Chloro-2-fluoro-6-(trifluoromethyl)phenyl)-N-(1-((S orR)-1-(2-((1R,5S or 1S,5R)-2-oxo-3-azabicyclo[3.1.0]hexan-3-yl)pyrimidin-5-yl)ethyl)-1H-pyrazol-4-yl)pyrazine-2-carboxamide], the values for the IC50 at Human plasma kallikrein and at human Factor XIa were 18.6 nM and 7680 nM, respectively.
For the molecule `CC(c1cnc(N2CC3CC3C2=O)nc1)n1cc(NC(=O)c2cncc(-c3c(OC(F)F)ccc(Cl)c3F)n2)cn1` (single isomer, unassigned) [Example 71, 6-(3-Chloro-6-(difluoromethoxy)-2-fluorophenyl)-N-(1-((S or R)-1-(2-((1R,5S or 1S,5R)-2-oxo-3-azabicyclo[3.1.0]hexan-3-yl)pyrimidin-5-yl)ethyl)-1H-pyrazol-4-yl)pyrazine-2-carboxamide], the figures for the IC50 at Human plasma kallikrein and against human Factor XIa were 39 nM and 4300 nM, respectively.
On to `CC(c1cnc(N2CC3CC3C2=O)nc1)n1cc(NC(=O)c2cncc(-c3c(OC(F)F)ccc(Cl)c3F)n2)cn1` (single isomer, unassigned) [Example 72, 6-(3-Chloro-6-(difluoromethoxy)-2-fluorophenyl)-N-(1-((R or S)-1-(2-((1R,5S or 1S,5R)-2-oxo-3-azabicyclo[3.1.0]hexan-3-yl)pyrimidin-5-yl)ethyl)-1H-pyrazol-4-yl)pyrazine-2-carboxamide], for which the results for the IC50 against Human plasma kallikrein and on human Factor XIa were 3.7 nM and 2740 nM, respectively.
For `CC(c1cnc(N2CC3CC3C2=O)nc1)n1cc(NC(=O)c2cncc(-c3c(OC(F)F)ccc(Cl)c3F)n2)cn1` (single isomer, unassigned) [Example 73, 6-(3-Chloro-6-(difluoromethoxy)-2-fluorophenyl)-N-(1-((S or R)-1-(2-((1S,5R or 1R,5S)-2-oxo-3-azabicyclo[3.1.0]hexan-3-yl)pyrimidin-5-yl)ethyl)-1H-pyrazol-4-yl)pyrazine-2-carboxamide], in that order: 23.1 nM and 2270 nM.

One may read the IC50 as the concentration needed to halve the response being measured. High values mean lower potency, low ones higher potency.
